These results are taken from US20250367301A1, “PHARMACEUTICAL COMPOSITION FOR PREVENTING OR TREATING TRIPLE-NEGATIVE BREAST CANCER, COMPRISING OLIGONUCLEOTIDE AS ACTIVE INGREDIENT” (INTEROLIGO CORPORATION, priority 2021, published 2025).

The subject of data set [1] is 4T1 Luc2 cell line. The data set is described as follows: Intracellular uptake by flow cytometry in 4T1 Luc2 cells. The data set is classed as cell-based, mouse. Particulars: flow cytometry of 4T1 cells. The procedure:
In this experiment, 4T1 Luc2 cell line (ATCC, USA) was used and the cells were cultured using the same method described in 3-1-1.
The medium was replaced with RPMI medium containing 5% FBS and treated with drugs for additional 2, 4, 6, 24 hours, and then DAPI staining was performed after the reaction was completed. The finished samples were compared using a flow cytometer (Beckman Coulter CytoFlex (3 lasers)) to measure the degree of fluorescence expression against the control cell line.

Data set [2] deals with TNBC metastasis after surgical resection. Conditions: after 50 days post-insertion of the drug/hydrogel patch at the resection site; mice; cited from earlier work.
Data set [3] deals with 4T1-Luc2 triple-negative breast cancer orthotopic tumor resection model. The data set is described as follows: Antitumor efficacy via intraperitoneal injection in TNBC orthotopic animal model (tumor resection model). The data set is classed as in vivo, female Balb/c mice.

Regarding “Cy5-(Gem)(Gem)[TGG]4[TTG][TGG]5 [Cy5-labeled IO101L]”, the “Cy5-labeled IO101L found to enter the cells” value in data set [1] (after 24 hours) is reported as “over 80%”.
`Nc1ncnc2c1ncn2C1O[C@@H]2CO[P@@](=O)([S-])O[C@H]3[C@@H](O)[C@H](n4cnc5c(N)ncnc54)O[C@@H]3CO[P@@](=O)([S-])O[C@@H]1[C@@H]2O.[Na+].[Na+]` (stereo partly shown) [STING-RR]: the survival rate in data set [2] is given as 60%.
Regarding `Nc1ccn([C@@H]2O[C@H](CO)[C@@H](O)C2(F)F)c(=O)n1` [gemcitabine, 2′,2′-difluorodeoxycytidine, reference compound], in data set [3] (1 mg intraperitoneal every other day, 10 times, after tumor resection, 5 mice), the “time within which all mice died (lung metastasis)” value is ≤ 30 days.
Take “(Gem)2-[TGG]4[TTG][TGG]5 (NNTGGTGGTGGTGGTTGTGGTGGTGGTGGTGG; two 5' gemcitabine; modified_base 1 OTHER; 2', 2'-difluoro deoxycytidine; modified_base 2 OTHER) [IO101L, modified oligonucleotide, two gemcitabine at the 5′ end]”: the “intracellular influx compared with the IO101L-control group” value in data set [1] (FIG. 4) was “significantly superior”. Also, the “mice with confirmed lung metastasis” value in data set [3] (2 mg intraperitoneal every other day, 10 times, after tumor resection) is on record as 3 out of 7. Also, the “inhibition of cancer metastasis compared to positive control gemcitabine” value in data set [3] (intraperitoneal, post-TNBC tumor resection) is on record as “significantly inhibited cancer metastasis”. Besides, the “mice surviving until day 76” value in data set [3] (mouse, in vivo, ip) was 4 out of 7.
